One compound from patent US20140271670A1, “COMPOSITIONS FOR TREATING SKIN DISORDERS” (priority 2013, published 2014) can be followed below.

The assay has as its system Propionibacterium acnes (ATCC #6919). In words: In vitro reduction of P. acnes population (plate counts after timed exposure). In kind it is cell-based. The procedure:
In vitro experiments show the effectiveness of a composition comprising salicylic acid and anti-P. acnes immunoglobulin at reducing a specific microorganism population.
The microorganism of interest in the described experiments was Propionibacterium acnes. A stock suspension of P. acnes was prepared by inoculating a sample of P. acnes (ATCC #6919) in Reinforced Clostria broth at 36±1° C. for 5 days anaerobically. This stock suspension was divided into four equal batches. The first batch served as a no treatment control group. The second batch was treated with 2% salicylic acid. The third batch was treated with 3 ppm anti-P. acnes IgY at 95% purity. The fourth batch was treated with 2% salicylic acid and 3 ppm anti-P. acnes IgY at 95% purity. At time intervals 30 seconds, 1 minute, 5 minutes, 12 hours, and 24 hours, 1.0 ml from the inoculated control and test batches was taken and placed into 9.0 ml of neutralizing broth (1:10 dilution). Additional dilutions were made using neutralizing broth to achieve 1:100, 1:1000 and 1:10,000 dilutions. One milliliter from each dilution was plated into TSA+5% sheep blood. The plates were incubated at 36±1° C. for 5 days anaerobically. After the incubation period, all plates were counted to determine the number of microorganism at each time point.

Bounds are passed on as bounds.

Consider `O=C(O)c1ccccc1O` [2% SA, salicylic acid (o-hydroxybenzoic acid)], for which the number of microorganism runs as follows: (Exposure Time 30 sec.) 7.20E+05; (Exposure Time 12 hours) under 10; (Exposure Time 24 hours) under 10; (Exposure Time Initial, P. acnes stock suspension) 8.20E+05. Moreover, the “time after which a 99% kill rate was reached” value (used alone) is 12 h. For the same compound, the “reduction of the concentration of P. acnes” value (within the first 30 seconds) is reported as “about 12%”.
